Test results published in US6329390A, “5-Bicycloindole compounds” (NPS Allelix Corp., priority 1998, dated 2001).

Experiments:
[1] = target: T1, 5-HT1D receptor (Homo sapiens, UniProt P28221); experiment: Binding affinity, inhibition of 3H-serotonin binding to membranes of cells expressing the 5-HT1D receptor; conditions: for inhibition at 0.1 µM: 100 nM of test compound, 3H-serotonin 1 nM, 60 minute incubation at 22° C., read-out: affinity for the 5-HT1D receptor: amount (in percent) of binding of the radioligand that is inhibited; for binding at the 5-HT1D receptor (in words): at a concentration of 100 nM
T1 construct: expressed in transfected cells
T1 sequence (P28221 whole entry): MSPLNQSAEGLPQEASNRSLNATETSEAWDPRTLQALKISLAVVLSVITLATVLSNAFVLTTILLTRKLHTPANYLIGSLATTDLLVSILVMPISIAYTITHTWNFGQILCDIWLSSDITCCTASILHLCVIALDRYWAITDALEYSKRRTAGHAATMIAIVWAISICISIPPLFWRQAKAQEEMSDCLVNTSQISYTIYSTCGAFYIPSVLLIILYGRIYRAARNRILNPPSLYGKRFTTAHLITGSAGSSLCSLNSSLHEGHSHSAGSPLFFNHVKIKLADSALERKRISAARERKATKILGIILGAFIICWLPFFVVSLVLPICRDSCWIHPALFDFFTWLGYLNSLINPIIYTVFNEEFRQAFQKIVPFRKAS
Protocol: (§1) Selected compounds of the previous examples, as well as reference compounds were evaluated for binding affinity using cell types receptive specifically to 5-HT1D and 5-HT1B ligands. The assay protocol generally entailed the incubation of membranes prepared f cells expressing the 5-HT1D or 5-HT1B subtype of 5-HT receptors with ^3 H serotonin (1 nM for 5-HT1 D and 2.5 nM for 5-HT1B). Specific concentrations of the test compound were incubated with the radioligand and the membrane homogenates prepared from the recombinant cells. After a 60 minute incubation at 22° C., the incubation was terminated by vacuum filtration. The filters were washed with buffer and counted for radioactivity using liquid scintillation spectroscopy. The affinity of the test compound for the 5-HT1D receptor is expressed as the amount (in percent) of binding of the radioligand that is inhibited in the presence of 100 nM of test compound. A greater percent inhibition indicates greater affinity for the 5-HT1D receptor.

[2] = target: T2, 5-HT1B receptor (Homo sapiens, UniProt P28222); experiment: Binding affinity, inhibition of 3H-serotonin binding to membranes of cells expressing the 5-HT1B receptor; conditions: for binding at the 5-HT1B receptor (in words): at a concentration of 100 nM; for inhibition at 0.1 µM: 100 nM of test compound, 3H-serotonin 2.5 nM, 60 minute incubation at 22° C., read-out: affinity for the 5-HT1B receptor (percent inhibition of radioligand binding)
T2 construct: expressed in transfected cells
T2 sequence (P28222 whole entry): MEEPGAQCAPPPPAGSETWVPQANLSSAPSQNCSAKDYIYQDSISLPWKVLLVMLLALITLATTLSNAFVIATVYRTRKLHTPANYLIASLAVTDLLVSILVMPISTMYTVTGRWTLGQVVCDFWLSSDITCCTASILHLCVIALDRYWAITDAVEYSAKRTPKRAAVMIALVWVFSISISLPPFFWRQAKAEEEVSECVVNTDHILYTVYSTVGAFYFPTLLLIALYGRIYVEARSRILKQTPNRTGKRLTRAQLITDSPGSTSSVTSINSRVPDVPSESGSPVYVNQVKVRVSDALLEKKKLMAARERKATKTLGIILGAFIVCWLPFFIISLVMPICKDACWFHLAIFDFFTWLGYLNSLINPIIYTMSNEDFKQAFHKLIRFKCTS
Protocol: as §1

Row | SMILES | inhibition at 0.1 µM [1] [%] | binding at the 5-HT1D receptor (in words) [1] | binding at the 5-HT1B receptor (in words) [2] | inhibition at 0.1 µM [2] [%]
1 | CN(C)CCc1c[nH]c2ccc(C3(O)CCN4CCCC4C3)cc12 (single isomer, unassigned) [Example 6c, 5-[(7-R or S)(8a-R,S)-7-Hydroxyoctahydroindolizin-7-yl]-3-[2-(N,N-dimethylamino)ethyl]indole] | > 90 | – | – | –
2 | CN1CCC[C@H]1Cc1c[nH]c2ccc(C3CCN4CCCC4C3)cc12 (single isomer, unassigned) [Example 8a, 5-[(7R or 7S)(8a-R,S)-Octahydroindolizin-7-yl]-3-{[(2S)-N-methylpyrrolidin-2-yl]methyl}-1 H-indole] | – | little, if any, binding | little, if any, binding | –
3 | CN1CCC[C@H]1Cc1c[nH]c2ccc(C3CCN4CCCC4C3)cc12 (single isomer, unassigned) [Example 8b, 5-[(7R or 7S)(8a-R,S)-Octahydroindolizin-7-yl] 3-{[(2S)-N-methylpyrrolidin-2-yl]methyl}-1 H-indole] | – | little, if any, binding | little, if any, binding | –
4 | CN1CCC[C@H]1Cc1c[nH]c2ccc(C3(O)CCN4CCCC4C3)cc12 (stereo partly drawn) [Example 6a, 5-[(7-R,S)(8a-R,S)-7-Hydroxyoctahydroindolizin-7-yI]-3-{[(2S)-N-methylpyrrolidin-2-yl]methyl}-1 H-indole] | – | little, if any, binding | little, if any, binding | –
5 | CN1CCC[C@@H]1Cc1c[nH]c2ccc(C3(O)CCN4CCCC4C3)cc12 (stereo partly drawn) [Example 6b, 5-[(7-R,S)(8a-R,S)-7-Hydroxyoctahydroindolizin-7-yl]-3-{[(2R)-N-methylpyrrolidin-2-yl]methyl}-1H-indole] | – | – | – | < 30
6 | CN1CCC[C@H]1Cc1c[nH]c2ccc(C3=CC4CCCN4CC3)cc12 (stereo partly drawn) [Example 7a, 5-[(8a-R,S)-1,2,3,5,6,8a-Hexahydroindolizin-7-yl]-3-{[(2S)-N-methylpyrrolidin-2-yl]methyl}-1 H-indole] | – | little, if any, binding | little, if any, binding | –
7 | CN1CCC[C@H]1Cc1c[nH]c2ccc(C3=CCN4CCCC4C3)cc12 (stereo partly drawn) [Example 7b, 5-[(8a-R,S)-1,2,3,5,8,8a-Hexahydroindolizin-7-yl]-3-{[(2S)-N-methylpyrrolidin-2-yl]methyl}-1 H-indole] | – | little, if any, binding | little, if any, binding | –
8 | CN1CCC[C@@H]1Cc1c[nH]c2ccc(C3=CCN4CCCC4C3)cc12 (stereo partly drawn) [Example 7d, 5-[(8a-R,S)-1,2,3,5,8,8a-Hexahydroindolizin-7-yl]-3-{[(2R)-N-methylpyrrolidin-2-yl]methyl}-1H-indole] | > 90 | – | – | –
9 | CN1CCC[C@@H]1Cc1c[nH]c2ccc(C3CCN4CCCC4C3)cc12 (stereo partly drawn) [Example 8c, 5-[(7-R,S)(8a-R,S)-Octahydroindolizin-7-yl]- -{[(2R)-N-methylpyrrolidin-2-yl]methyl}-1H-indole] | – | – | – | < 30
